Reference: patent US10308643B2, “Heterocyclic compound” (Takeda Pharmaceutical Company Limited, priority 2015, dated 2019)

Legend:
Type in all cases: biochemical
HDAC9 enzyme = biological target: T1, HDAC9 enzyme (Homo sapiens, UniProt Q9UKV0); assay: HDAC9 Enzyme Inhibitory Assay (HDAC-Glo class IIa); details: 1 μM test compound; wells without enzyme = 100% inhibition; read-out: HDAC9 inhibitory rate (%) (1 μM)
T1 construct: transducing full length HDAC9 gene into Sf-9 insect cells; made in house; host or cells: Sf-9 insect cells
Protocol: HDAC9 Enzyme Inhibitory Assay
Enzyme was prepared by transducing full length HDAC9 gene into Sf-9 insect cells and purifying by Ni-NTA affinity column, and HDAC9 enzyme inhibitory activity was evaluated. Enzymes were used after preserved at −70° C. HDAC9 enzyme inhibitory activity of the test compound was measured using HDAC-Glo class IIa (Promega) according to the following experimental method. The test compound diluted with assay buffer (24 mM Tris-HCl (pH 7.5), 1 mM MgCl2, 0.35 mM KCl, 135 mM NaCl, 0.6 mM Glutathione, 0.01% Tween-20) was added to a 384-well plate by each 2 μL. Then, HDAC9 enzyme solution diluted with assay buffer was added thereto by each 2 μL, and the plate was incubated at room temperature for 60 min. After incubated, HDAC substrate-Developer solution prepared according to Promega protocol was added to the 384-well plate by each 4 μL, and the enzyme reaction was started. After reacting at room temperature for 20 min, luminescence level was measured using plate reader Envision (PerkinElmer). The inhibitory activity of each compound was calculated as a relative activity value when luminescence level in wells without enzyme is considered as 100% inhibition.

HDAC6 enzyme = biological target: T2, HDAC6 enzyme (Homo sapiens, UniProt Q9UBN7); assay: HDAC1/6 Enzyme Inhibitory Assay (HDAC-Glo I/II Assay kit), HDAC6; details: 1 μM test compound; wells without enzyme = 100% inhibition; read-out: HDAC6 inhibitory rate (%) (1 μM)
T2 construct: transducing full length HDAC1 and HDAC6 genes into Sf-9 insect cells; GST; purchased SignalChem; host or cells: Sf-9 insect cells
T2 sequence (Q9UBN7 1-1215): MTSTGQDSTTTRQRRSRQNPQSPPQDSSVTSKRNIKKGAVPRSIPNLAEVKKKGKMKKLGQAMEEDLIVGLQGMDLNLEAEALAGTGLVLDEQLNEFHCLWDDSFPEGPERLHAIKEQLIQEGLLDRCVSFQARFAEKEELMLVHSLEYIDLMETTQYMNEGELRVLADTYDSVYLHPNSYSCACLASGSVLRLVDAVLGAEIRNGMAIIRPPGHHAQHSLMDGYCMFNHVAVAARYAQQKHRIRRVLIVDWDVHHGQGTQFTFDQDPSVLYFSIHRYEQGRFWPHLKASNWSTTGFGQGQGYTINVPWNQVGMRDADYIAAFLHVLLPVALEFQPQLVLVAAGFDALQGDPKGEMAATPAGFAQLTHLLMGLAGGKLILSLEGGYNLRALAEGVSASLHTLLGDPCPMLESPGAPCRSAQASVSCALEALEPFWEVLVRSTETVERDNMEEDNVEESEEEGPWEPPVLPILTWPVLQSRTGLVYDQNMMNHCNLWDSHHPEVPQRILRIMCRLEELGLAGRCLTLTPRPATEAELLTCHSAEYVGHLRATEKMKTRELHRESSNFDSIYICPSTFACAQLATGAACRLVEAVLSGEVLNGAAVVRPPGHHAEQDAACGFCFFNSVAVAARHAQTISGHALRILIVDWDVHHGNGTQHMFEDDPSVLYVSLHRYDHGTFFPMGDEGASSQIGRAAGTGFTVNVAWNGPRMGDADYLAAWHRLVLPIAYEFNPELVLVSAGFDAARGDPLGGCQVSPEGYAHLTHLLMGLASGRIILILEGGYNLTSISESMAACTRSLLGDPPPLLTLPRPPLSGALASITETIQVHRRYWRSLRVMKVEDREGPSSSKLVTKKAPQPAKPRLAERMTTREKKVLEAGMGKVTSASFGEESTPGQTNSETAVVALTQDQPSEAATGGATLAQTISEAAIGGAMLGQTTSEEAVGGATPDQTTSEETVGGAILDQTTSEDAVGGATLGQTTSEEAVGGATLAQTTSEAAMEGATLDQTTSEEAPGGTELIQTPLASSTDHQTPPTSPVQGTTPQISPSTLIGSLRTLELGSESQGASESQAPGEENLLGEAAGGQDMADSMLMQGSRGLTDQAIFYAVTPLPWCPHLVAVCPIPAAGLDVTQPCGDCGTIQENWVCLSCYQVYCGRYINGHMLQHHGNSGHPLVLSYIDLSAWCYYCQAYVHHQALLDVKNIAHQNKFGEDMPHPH
Protocol: (§1) HDAC1/6 Enzyme Inhibitory Assay
(§2) HDAC1 enzyme and HDAC6 enzyme each prepared by transducing full length HDAC1 and HDAC6 genes into Sf-9 insect cells and purifying by GST affinity column were purchased from SignalChem. Using these enzymes, HDAC1 and/or HDAC6 enzyme inhibitory activities of the compound of the present invention were evaluated. Enzymes were used after preserved at −70° C. HDAC1 or HDAC6 enzyme inhibitory activity of the compound of the present invention was measured using HDAC-Glo™ I/II Assay kit (Promega) according to the following experimental method. The test compound diluted with assay buffer (24 mM Tris-HCl (pH 7.5), 1 mM MgCl2, 0.35 mM KCl, 135 mM NaCl, 0.6 mM Glutathione, 0.01% Tween-20) was added to a 384-well plate by each 2 μL. Then, HDAC1 or HDAC6 enzyme solution diluted with assay buffer was added thereto by each 4 μL, and the plate was incubated at room temperature for 60 min. After incubated, HDAC substrate-Developer solution prepared according to Promega protocol attached to the assay kit was added to the 384-well plate by each 2 μL, and the enzyme reaction was started. After reacting at room temperature for 20 min, luminescence level was measured using plate reader Envision (PerkinElmer). The inhibitory activity of each compound was calculated as a relative activity value when luminescence level in wells without enzyme is considered as 100% inhibition.

HDAC1 enzyme = biological target: T3, HDAC1 enzyme (Homo sapiens, UniProt Q13547); assay: HDAC1/6 Enzyme Inhibitory Assay (HDAC-Glo I/II Assay kit), HDAC1; details: 1 μM test compound, wells without enzyme = 100% inhibition; for inhibition at 1 µM: read-out: HDAC1 inhibitory rate (%) (1 μM)
T3 construct: transducing full length HDAC1 and HDAC6 genes into Sf-9 insect cells; GST; purchased SignalChem; host or cells: Sf-9 insect cells
Protocol: as §1, §2

T1 sequence (Q9UKV0 whole entry, species assumed): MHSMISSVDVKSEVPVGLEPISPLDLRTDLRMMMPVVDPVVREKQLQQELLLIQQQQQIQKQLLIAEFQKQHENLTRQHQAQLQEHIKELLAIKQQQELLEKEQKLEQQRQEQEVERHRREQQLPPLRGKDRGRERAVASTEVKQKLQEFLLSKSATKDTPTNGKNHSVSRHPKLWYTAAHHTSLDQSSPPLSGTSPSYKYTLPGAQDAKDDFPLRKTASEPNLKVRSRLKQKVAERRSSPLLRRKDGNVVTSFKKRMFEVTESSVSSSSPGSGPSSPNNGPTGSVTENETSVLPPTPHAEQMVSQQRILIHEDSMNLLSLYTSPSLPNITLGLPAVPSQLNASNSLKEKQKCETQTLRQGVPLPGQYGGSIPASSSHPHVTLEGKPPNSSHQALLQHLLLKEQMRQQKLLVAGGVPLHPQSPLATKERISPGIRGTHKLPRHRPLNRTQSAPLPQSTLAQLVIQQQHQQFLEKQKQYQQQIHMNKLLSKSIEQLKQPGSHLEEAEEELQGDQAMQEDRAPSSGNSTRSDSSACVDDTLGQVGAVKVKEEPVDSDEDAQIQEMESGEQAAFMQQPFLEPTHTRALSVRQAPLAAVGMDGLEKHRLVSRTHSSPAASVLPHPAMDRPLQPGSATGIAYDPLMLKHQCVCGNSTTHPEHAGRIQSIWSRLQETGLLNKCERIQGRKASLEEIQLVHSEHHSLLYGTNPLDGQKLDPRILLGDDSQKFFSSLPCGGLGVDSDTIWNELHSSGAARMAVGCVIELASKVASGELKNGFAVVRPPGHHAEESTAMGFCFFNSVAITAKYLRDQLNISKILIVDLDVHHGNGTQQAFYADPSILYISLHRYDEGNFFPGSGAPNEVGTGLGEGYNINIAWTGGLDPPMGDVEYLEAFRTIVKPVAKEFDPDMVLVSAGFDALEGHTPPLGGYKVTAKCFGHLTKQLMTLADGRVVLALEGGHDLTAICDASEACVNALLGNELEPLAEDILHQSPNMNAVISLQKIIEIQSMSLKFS
T3 sequence (Q13547 whole entry): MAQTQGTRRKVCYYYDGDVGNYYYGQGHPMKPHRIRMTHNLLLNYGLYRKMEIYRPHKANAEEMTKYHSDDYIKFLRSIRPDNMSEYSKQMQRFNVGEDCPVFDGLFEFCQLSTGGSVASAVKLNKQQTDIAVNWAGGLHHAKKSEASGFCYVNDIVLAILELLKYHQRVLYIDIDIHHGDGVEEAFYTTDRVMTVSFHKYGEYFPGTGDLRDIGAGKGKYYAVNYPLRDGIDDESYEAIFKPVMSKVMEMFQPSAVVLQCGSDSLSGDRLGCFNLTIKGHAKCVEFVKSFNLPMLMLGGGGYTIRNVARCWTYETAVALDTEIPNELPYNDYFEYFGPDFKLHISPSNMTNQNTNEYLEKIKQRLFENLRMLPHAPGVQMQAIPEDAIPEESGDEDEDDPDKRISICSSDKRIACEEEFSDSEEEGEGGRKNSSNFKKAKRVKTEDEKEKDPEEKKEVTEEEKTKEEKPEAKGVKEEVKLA

| SMILES | inhibition at 1 µM (HDAC9 enzyme) [%] | inhibition at 1 µM (HDAC6 enzyme) [%] | inhibition at 1 µM (HDAC1 enzyme) [%] | HDAC1 inhibitory rate (%) (1 μM) (HDAC1 enzyme; 1 µM) |
| --- | --- | --- | --- | --- |
| O=C1c2cc(-c3noc(C(F)(F)F)n3)ccc2CN1[C@H]1CCCC[C@@H]1N1CCOCC1 (relative stereo) [Example 59, 2-(trans-2-(morpholin-4-yl)cyclohexyl)-6-(5-(trifluoromethyl)-1,2,4-oxadiazol-3-yl)isoindolin-1-one] | 91 | 97 | 60 |  |
| O=C(N[C@@H]1COCC[C@H]1N1Cc2ccc(-c3noc(C(F)(F)F)n3)cc2C1=O)[C@@H]1CC1(F)F [Example 149, (1S)-2,2-difluoro-N-((3S,4R)-4-(1-oxo-6-(5-(trifluoromethyl)-1,2,4-oxadiazol-3-yl)-1,3-dihydro-2H-isoindol-2-yl)tetrahydro-2H-pyran-3-yl)cyclopropanecarboxamide] | 60 | 100 | 12 |  |
| O=C1CCCN1c1cccc(Cl)c1N1Cc2ccc(-c3noc(C(F)(F)F)n3)cc2C1=O [Example 185, 2-(2-chloro-6-(2-oxopyrrolidin-1-yl)phenyl)-6-(5-(trifluoromethyl)-1,2,4-oxadiazol-3-yl)isoindolin-1-one] | 41 | 97 | 5 |  |
| Cc1cc([C@@H]2CNCC[C@H]2N2Cc3ccc(-c4noc(C(F)(F)F)n4)cc3C2=O)ccc1Cl (relative stereo) [Example 57, 2-(trans-3-(4-chloro-3-methylphenyl)piperidin-4-yl)-6-(5-(trifluoromethyl)-1,2,4-oxadiazol-3-yl)isoindolin-1-one] | 99 | 94 | 93 |  |
| CC(=O)N1CC[C@@H](N2Cc3cc(-c4noc(C(F)(F)F)n4)ccc3C2=O)[C@H](c2ccccc2)C1 (relative stereo) [Example 137, trans-2-(1-acetyl-3-phenylpiperidin-4-yl)-5-(5-(trifluoromethyl)-1,2,4-oxadiazol-3-yl)isoindolin-1-one] | 94 | 89 | 25 |  |
| O=C(N[C@@H]1CCOC[C@H]1N1Cc2ccc(-c3noc(C(F)(F)F)n3)cc2C1=O)C1CCOC1 (stereo partly drawn) [Example 205, N-((3S,4R)-3-(1-oxo-6-(5-(trifluoromethyl)-1,2,4-oxadiazol-3-yl)-1,3-dihydro-2H-isoindol-2-yl)tetrahydro-2H-pyran-4-yl)tetrahydrofuran-3-carboxamide] | 52 | 99 | 5 |  |
| CC1(C)C(C(=O)N[C@@H]2CCCC[C@H]2N2Cc3ccc(-c4noc(C(F)(F)F)n4)cc3C2=O)C1(C)C [Example 99, 2,2,3,3-tetramethyl-N-((1R,2R)-2-(1-oxo-6-(5-(trifluoromethyl)-1,2,4-oxadiazol-3-yl)-1,3-dihydro-2H-isoindol-2-yl)cyclohexyl) cyclopropanecarboxamide] | 51 | 100 | 13 |  |

Now from value to compound:

| inhibition at 1 µM (HDAC9 enzyme) [%] | inhibition at 1 µM (HDAC6 enzyme) [%] | inhibition at 1 µM (HDAC1 enzyme) [%] | HDAC1 inhibitory rate (%) (1 μM) (HDAC1 enzyme; 1 µM) | SMILES |
| --- | --- | --- | --- | --- |
| 32 | 43 | 4 |  | CC1(C(=O)N[C@H]2CCCC[C@@H]2N2Cc3ccc(-c4noc(C(F)(F)F)n4)cc3C2=O)COC1 [Example 193, 3-methyl-N-((1S,2S)-2-(1-oxo-6-(5-(trifluoromethyl)-1,2,4-oxadiazol-3-yl)-1,3-dihydro-2H-isoindol-2-yl)cyclohexyl)oxetane-3-carboxamide] |
| 89 | 97 | 54 |  | O=C(N[C@@H]1CCCC[C@H]1N1Cc2ccc(-c3noc(C(F)(F)F)n3)cc2C1=O)c1ccccc1 (relative stereo) [Example 9, trans-N-(2-(1-oxo-6-(5-(trifluoromethyl)-1,2,4-oxadiazol-3-yl)-1,3-dihydro-2H-isoindol-2-yl)cyclohexyl)benzamide] |
| 37 | 100 | 3 |  | CC(C)(O)C(=O)N[C@@H]1CCCC[C@H]1N1Cc2ccc(-c3noc(C(F)(F)F)n3)cc2C1=O [Example 95, 2-hydroxy-2-methyl-N-((1R,2R)-2-(1-oxo-6-(5-(trifluoromethyl)-1,2,4-oxadiazol-3-yl)-1,3-dihydro-2H-isoindol-2-yl)cyclohexyl)propanamide] |
| 40 | 89 | 3 |  | O=C(CN1CCCC1=O)N[C@@H]1CCCC[C@H]1N1Cc2ccc(-c3noc(C(F)(F)F)n3)cc2C1=O [Example 121, 2-(2-oxopyrrolidin-1-yl)-N-((1R,2R)-2-(1-oxo-6-(5-(trifluoromethyl)-1,2,4-oxadiazol-3-yl)-1,3-dihydro-2H-isoindol-2-yl)cyclohexyl)acetamide] |
| 64 | 99 | 16 |  | O=C(N[C@@H]1CCCC[C@H]1N1Cc2ccc(-c3noc(C(F)(F)F)n3)cc2C1=O)c1ccncn1 [Example 115, N-((1R,2R)-2-(1-oxo-6-(5-(trifluoromethyl)-1,2,4-oxadiazol-3-yl)-1,3-dihydro-2H-isoindol-2-yl)cyclohexyl)pyrimidine-4-carboxamide] |
| 32 | 97 | 0 |  | O=C1c2cc(-c3noc(C(F)(F)F)n3)ccc2CN1[C@@H]1CCCC[C@H]1NC(=O)C1(CO)CCOCC1 [Example 113, 4-(hydroxymethyl)-N-((1R,2R)-2-(1-oxo-6-(5-(trifluoromethyl)-1,2,4-oxadiazol-3-yl)-1,3-dihydro-2H-isoindol-2-yl)cyclohexyl)tetrahydro-2H-pyran-4-carboxamide] |
| 8 | 96 |  | −1 | O=C(N[C@@H]1CCCC[C@H]1N1Cc2ccc(-c3noc(C(F)(F)F)n3)cc2C1=O)N1CC2CC1CO2 (stereo partly drawn) [Example 156, N-((1R,2R)-2-(1-oxo-6-(5-(trifluoromethyl)-1,2,4-oxadiazol-3-yl)-1,3-dihydro-2H-isoindol-2-yl)cyclohexyl)-2-oxa-5-azabicyclo[2.2.1]heptane-5-carboxamide] |
